Results as given in patent publication US9981961B2, “Deoxycytidine kinase inhibitors” (The Regents of the University of California, priority 2013, dated 2018).

Key:
[1] = test system: dCTP and dTTP pools of CEM cells; experiment: Intracellular dNTP pool measurement in CEM cells; assay type: cell-based, human; conditions: 24 hr
[2] = test system: NSP-produced dCTP incorporated into tumor DNA; experiment: [U-13C/15N]-dC incorporation into DNA of CEM tumor xenografts; assay type: in vivo, NSG mice; conditions: dCK^wt CEM tumors, dT 2 g/kg single dose, 4 hr
Description: For the in vivo studies, tumor-bearing mice were injected with 200 μL, of 2.5 mM [U-^13C/^15N]-deoxycytidine 30 min prior to sacrifice. Tumors were harvested, mechanically digested into single cells, and cell counts were obtained. DNA extraction was carried out as described above.
DNA hydrolysis samples were diluted 1/1 with solvent A (water/formic acid, 100/0.2, v/v) and analyzed using a modified version of a previously reported method (Cohen et al., 2009) in which aliquots of the solution (10 μL) were injected onto a porous graphitic carbon column (Thermo Hypercarb, 100×2.1 mm, 3 micron particle size) equilibrated in solvent A and eluted (300 μL/min) with an increasing concentration of solvent B (acetonitrile/min/% B; 0/0, 6/60, 6.1/100, 9/100, 9.1/0, 10/0). […] After verification of retention times using authentic standards, the peak areas of the MH^+→fragment ion transitions for the dC isotopomers (M0, 228.1→112.1; M1, 229.1→112.1; M2, 230.1→112.1; M3, 231.1→112.1; M4, 232.1→112.1; M5, 233.1→112.1; M6, 234.1→113.1; M7, 235.1→114.1; M8, […]; […]; M11, 239.1→118.1; and M12, 240.1→119.1) were recorded with instrument manufacturer-supplied software (Agilent MassHunter), and normalized to cell number. The dC isotopomers of M3 through M8 for the DNP and M11 through M12 for NSP were detected and used for data analysis.

[3] = Plasma thymidine level after dT injection; assay type: in vivo, NSG mice
Description: NOD SCID gamma (NSG) mice were injected with 2 g/kg dT intraperitoneally; 75 μL of whole blood was obtained at 0, 2, 4, and 8 hr through retro-orbital sinus bleed using hematocrit capillary tubes. Whole blood was immediately centrifuged at 3000× g for 5 min to isolate serum; 30 μL of serum was mixed with 1 mL methanol:acetonitrile (1:9), vortexed for 2 min, centrifuged at 14,000× g for 4 min at 4° C. Extraction was repeated and the pooled supernatant was dried under vacuum centrifugation. The residue was dissolved in 100 μL water, filtered and eluted through a Waters microBondapak C18 column under a gradient mobile phase from 2% methanol to 50% methanol over ten minutes at a flow rate of 1.5 mL/min.

[4] = test system: NSP-produced dCTP incorporated into DNA of CEM cells; experiment: Stable isotope labeling of dCTP biosynthesis in CEM cells; assay type: cell-based, human; conditions: 12 hr labeling, dT treatment
[5] = target: dCK activity in CCRF-CEM tumor xenografts (Homo sapiens, UniProt P27707)
dCK activity in CCRF-CEM tumor xenografts, sequence (P27707 whole entry): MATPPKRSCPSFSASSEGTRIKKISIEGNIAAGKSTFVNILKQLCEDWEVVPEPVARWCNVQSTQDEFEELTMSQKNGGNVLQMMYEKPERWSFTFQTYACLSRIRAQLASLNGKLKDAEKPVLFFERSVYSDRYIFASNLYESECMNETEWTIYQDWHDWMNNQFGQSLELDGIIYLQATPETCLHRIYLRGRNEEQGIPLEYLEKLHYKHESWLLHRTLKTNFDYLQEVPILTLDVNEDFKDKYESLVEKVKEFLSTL
Description: Four hours post-treatment mice were injected intravenously with 70 μCi of ^18F-L-FAC. For all mPET/CT studies, a 1 h interval was allowed between probe administration and mPET/CT scanning (Inveon, Siemens Medical Solutions USA Inc.; microCAT, Imtek Inc.). Static mPET images were acquired for 600 s. Images were analyzed using OsiriX Imaging Software Version 3.8.

[6] = test system: CEM leukemic cells in bone marrow; experiment: Systemic T-ALL model (CEM cells injected intravenously); assay type: in vivo, NSG mice; conditions: dT 2 g/kg every 12 hr
Description: Ten μL of blood was collected via tail vein nick and mixed with 2 μL 50 mM EDTA. One μL of blood was mixed with 99 μL PBS and transferred to a 96 well OptiPlate (Perkin Elmer). One hundred μL of 20 μM coelenterazine substrate was mixed and luciferase activity was measured using a plate luminescence microplate reader SpectraMax L (Molecular Devices). Systemic tumor models were established by intravenous injection of 10^6 CEM dCK^wt-sGluc-GFP or dCK^low-sGluc-GFP in 100 μL RPMI.

## Cc1cn([C@H]2C[C@H](O)[C@@H](CO)O2)c(=O)[nH]c1=O [dT, thymidine]
[1]; 50 μM dT
  fold increase of dTTP: ~20 fold
  fold reduction of dCTP: ~5 fold
[1]; DI-39 1 μM, dT 50 μM, or both
  decrease of dCTP pool: ~30%
[2]
  fold increase of labeled dCTP incorporation into DNA: ~3 fold
[3]; NOD SCID gamma (NSG), mouse, plasma, ip, at 8 hr after single injection 2 g/kg intraperitoneally, read-out: plasma dT, declined to baseline values
  concentration at 8 hr: ~10 µM
[3]; two hours after single injection 2 g/kg intraperitoneally
  plasma dT peak: 1.5 mM
[4]
  fold increase over baseline of utilization of NSP-produced dCTP for DNA synthesis: more than 3 fold
[5]
  increase of 18F-L-FAC accumulation: ~20%
[6]
  fold reduction in percentage of leukemic cells in bone marrow relative to vehicle and DI-39 treated groups: ~7 fold
